Laboratory results as given in patent US20100210561A1, “USE OF PEPTIDE AS A THERAPEUTIC AGENT” (priority 2007, published 2010).
Where no end group is shown, it is not given here. [ ]: non-standard residue; d: D form. The star is where a group is joined. tBu = CC(C)(C)*

Experiments:
HIV-1IIIB = assay: HIV-1 antiviral assay in CEM-SS cells (MTS readout); settings: positive controls
[1] = tested on: Tumor Necrosis Factor-α (TNF-α); assay: Th1/Th2 cytokine profiling assay: TNF-α; assay type: cell-based, Balb/c mice; settings: Ovalbumin-restimulated spleen cells, 72 hours
Interferon-γ (IFN-γ) = assay: Th1/Th2 cytokine profiling assay: IFN-γ; assay type: cell-based, Balb/c mice; settings: Ovalbumin-restimulated spleen cells, 72 hours
Interleukin-2 (IL-2) = assay: Th1/Th2 cytokine profiling assay: IL-2; assay type: cell-based, Balb/c mice; settings: Ovalbumin-restimulated spleen cells, 72 hours
HUVEC = assay: Endothelial tube formation assay; assay type: cell-based, human; settings: 10 micrograms per ml, 20 hours
Experimental: The endothelial tube formation assay is based on the ability of endothelial cells to form three-dimensional capillary-like tubular structures when cultured on a gel of basement membrane extract. […] Positive control was vehicle only. The endothelial cells were allowed to form tubes foe 20 hours and were then examined under an inverted fluorescent microscope. Duplicate wells for each treatment were photographed and quantitatevily analyzed for an average tubule length using image analysis software ImageProPlus. Raw data were expressed as average tubule lengths in pixels±standard deviation. Statistic p values were computed using the Student's t-test.

HCMV strain AD169 = assay: HCMV plaque formation assay in MRC-5 cells; assay type: cell-based, human cytomegalovirus; settings: 10 micrograms per ml, 7-10 days
Interleukin-4 (IL-4) = assay: Th1/Th2 cytokine profiling assay: IL-4; assay type: cell-based, Balb/c mice; settings: Ovalbumin-restimulated spleen cells, 72 hours
[2] = tested on: hepatitis B virus (HBV) ayw strain; assay: HBV assay in HepG2-2.2.15 cells (secreted HBV DNA, TaqMan PCR); assay type: cell-based; settings: 10 micrograms per ml, six days, HBV DNA in supernatant

Row | Compound | antiviral activity of positive control compounds (HIV-1IIIB) | TNF-a spleen cells; TH1 response (% of control) [1] | induction of the production of TNF-alpha in murine spleen cells [1] | IFNγ spleen cells; TH1 response (% of control) (Interferon-γ (IFN-γ)) | induction of the production of IFN-γ in murine spleen cells (Interferon-γ (IFN-γ)) | IL-2 spleen cells (% of control) (Interleukin-2 (IL-2)) | induction of the production of IL-2 in murine spleen cells (Interleukin-2 (IL-2)) | inhibition of the tube formation of human endothelial cells (HUVEC) | inhibition of HCMV plaque formation as compared to the virus control experiment (HCMV strain AD169) | IL-4 spleen cells; TH2 response (% of control) (Interleukin-4 (IL-4)) | decrease of the production of IL-4 in murine spleen cells (Interleukin-4 (IL-4)) | inhibition of HBV replication as compared to the virus control infection [2]
1 | Cc1cn([C@H]2C[C@H](N=[N+]=[N-])[C@@H](CO)O2)c(=O)[nH]c1=O [AZT] | expected levels of antiviral activity |  |  |  |  |  |  |  |  |  |  | 
2 | CC(C)(C)NC(=O)[C@@H]1CN(Cc2cccnc2)CCN1C[C@@H](O)C[C@@H](Cc1ccccc1)C(=O)N[C@H]1c2ccccc2C[C@H]1O [indinavir] | expected levels of antiviral activity |  |  |  |  |  |  |  |  |  |  | 
3 | Y[dC](tBu)GFLT(tBu)-OH [Peptide 1] |  | 123.7 % of control | 23.7% | 107.6 % of control | did not significantly change | 115.0 % of control | did not significantly change | 4% | 46.5% | 65.0 % of control | 35.0% | 24.2%
